For this test, the target named is rhodopsin (Bos taurus, UniProt P02699). The test is described as follows: extra MII stabilization assay. In kind it is biochemical.
Sequence of rhodopsin (P02699 whole entry): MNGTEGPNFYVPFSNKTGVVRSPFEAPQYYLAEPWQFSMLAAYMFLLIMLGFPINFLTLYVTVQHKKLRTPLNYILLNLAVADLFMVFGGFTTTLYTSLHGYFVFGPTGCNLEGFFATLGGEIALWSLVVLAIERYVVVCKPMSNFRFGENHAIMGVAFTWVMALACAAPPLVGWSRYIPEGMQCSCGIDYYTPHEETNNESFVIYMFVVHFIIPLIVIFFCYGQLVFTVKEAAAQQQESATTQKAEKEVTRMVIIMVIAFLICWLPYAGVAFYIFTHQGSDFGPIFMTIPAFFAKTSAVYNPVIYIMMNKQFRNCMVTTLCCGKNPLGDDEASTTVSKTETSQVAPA

As a reminder, the EC50 is the concentration that produces a half-maximal response. Lower therefore signals a more potent agent. For the substance AW 00987 [compound 5], a half-maximal response (EC50) required 11.8 ± 6.7 mM.
KM 05703 [compound 4] yielded a half-maximal effective concentration (EC50) of 3 ± 0.28 mM.
To RJC 01340 [compound 3] belongs 16.3 ± 12.3 mM.
